From patent US20240051985A1, “METTL3 MODULATORS” (ACCENT THERAPEUTICS, INC., priority 2020, published 2024)

Legend:
[1] = biological target: METTL3/METTL14 (Homo sapiens, UniProt Q86U44); assay: METTL3-14 standard enzyme assay (3H-SAM flashplate); settings: Table 4; METTL3 biochemical assay
Outline: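 METTL3/METTL14 (2.5 nM) preincubated 5 min, then reacted with 3′-biotinylated RNA UCUGGACUAAA (100 nM) and 3H-SAM (100 nM) for 30 min at ambient temperature in 20 mM HEPES pH 7.5, 50 mM KCl, 250 μM MgCl2, 1 mM DTT. Quenched with 15 μM cold SAM; product captured on streptavidin flashplates, scintillation counted.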

[2] = biological target: PRMT5-MEP50 (Homo sapiens, UniProt O14744); assay: PRMT5 assay (3H-SAM flashplate); settings: Table 4; PRMT5 biochemical assay
Chain of PRMT5-MEP50 (O14744 whole entry): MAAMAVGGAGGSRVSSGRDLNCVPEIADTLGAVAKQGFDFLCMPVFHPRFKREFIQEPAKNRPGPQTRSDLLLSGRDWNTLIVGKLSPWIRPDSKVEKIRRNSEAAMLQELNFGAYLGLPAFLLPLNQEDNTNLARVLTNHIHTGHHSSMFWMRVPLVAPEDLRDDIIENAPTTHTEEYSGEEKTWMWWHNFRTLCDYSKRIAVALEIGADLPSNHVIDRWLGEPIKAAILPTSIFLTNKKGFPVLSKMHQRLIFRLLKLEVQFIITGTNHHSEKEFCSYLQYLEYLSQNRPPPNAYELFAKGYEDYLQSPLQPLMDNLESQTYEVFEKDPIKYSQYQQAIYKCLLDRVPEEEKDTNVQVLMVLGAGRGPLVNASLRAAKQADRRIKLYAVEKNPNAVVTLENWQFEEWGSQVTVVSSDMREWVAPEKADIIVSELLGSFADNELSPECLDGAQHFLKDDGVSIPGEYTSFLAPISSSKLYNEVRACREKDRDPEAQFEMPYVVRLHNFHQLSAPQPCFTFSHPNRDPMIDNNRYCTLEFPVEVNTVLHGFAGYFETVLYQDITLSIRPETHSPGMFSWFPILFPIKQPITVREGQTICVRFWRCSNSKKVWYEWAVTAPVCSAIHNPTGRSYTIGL
Chain of PRMT5-MEP50 (Q9BQA1 whole entry partner): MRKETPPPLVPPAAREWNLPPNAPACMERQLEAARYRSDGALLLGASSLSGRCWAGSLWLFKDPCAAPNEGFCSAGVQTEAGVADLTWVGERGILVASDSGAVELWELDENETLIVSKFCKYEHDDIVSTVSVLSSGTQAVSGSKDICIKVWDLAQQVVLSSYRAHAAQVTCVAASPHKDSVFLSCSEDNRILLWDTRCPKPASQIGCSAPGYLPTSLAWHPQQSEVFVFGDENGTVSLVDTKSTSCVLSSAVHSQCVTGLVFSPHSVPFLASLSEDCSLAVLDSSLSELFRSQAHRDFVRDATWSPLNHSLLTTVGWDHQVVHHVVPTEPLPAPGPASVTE
Outline: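 PRMT5-MEP50 at 2.5 nM, preincubated 5 min with compound in 20 mM Tris-HCl pH 8.0, 1 mM DTT, 0.01% Tween at ambient temperature. Biotinylated acetylated histone H4 peptide (100 nM) and 3H-SAM (250 nM) react 60 min, quenched with 15 μM cold SAM; methylation captured on streptavidin flashplates and scintillation-counted.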

[3] = biological target: T1, FLT3 (Homo sapiens, UniProt P36888); assay: FLT3 Caliper assay; type: biochemical; settings: Table 4; read-out: FLT3 Calipher assay IC50
T1 sequence (P36888 27-993): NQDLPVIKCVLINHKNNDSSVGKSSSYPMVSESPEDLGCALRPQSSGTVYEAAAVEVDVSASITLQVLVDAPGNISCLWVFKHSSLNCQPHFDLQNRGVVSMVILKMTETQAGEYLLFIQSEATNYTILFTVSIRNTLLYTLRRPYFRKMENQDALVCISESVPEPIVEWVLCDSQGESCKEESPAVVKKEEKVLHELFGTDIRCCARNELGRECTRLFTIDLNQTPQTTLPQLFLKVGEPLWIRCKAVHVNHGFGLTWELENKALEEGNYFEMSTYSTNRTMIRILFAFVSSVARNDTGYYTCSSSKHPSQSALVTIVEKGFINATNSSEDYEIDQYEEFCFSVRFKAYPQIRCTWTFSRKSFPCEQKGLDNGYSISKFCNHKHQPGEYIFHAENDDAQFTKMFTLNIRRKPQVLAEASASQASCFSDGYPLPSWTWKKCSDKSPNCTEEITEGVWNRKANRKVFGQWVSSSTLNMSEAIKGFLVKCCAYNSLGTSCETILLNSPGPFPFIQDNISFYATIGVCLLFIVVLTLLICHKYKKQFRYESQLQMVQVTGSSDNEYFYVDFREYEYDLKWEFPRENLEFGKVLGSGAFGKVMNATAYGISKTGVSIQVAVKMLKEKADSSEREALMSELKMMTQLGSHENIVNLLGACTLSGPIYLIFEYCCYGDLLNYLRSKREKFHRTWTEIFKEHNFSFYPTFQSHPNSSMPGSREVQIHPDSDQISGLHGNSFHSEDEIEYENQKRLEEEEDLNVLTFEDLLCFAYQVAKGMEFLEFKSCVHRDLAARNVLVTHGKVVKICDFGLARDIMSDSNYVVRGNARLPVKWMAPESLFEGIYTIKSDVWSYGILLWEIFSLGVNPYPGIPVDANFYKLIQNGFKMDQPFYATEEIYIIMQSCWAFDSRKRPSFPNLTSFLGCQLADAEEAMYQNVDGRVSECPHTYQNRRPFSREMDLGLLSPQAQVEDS
Experimental: (§1) FLT3/FLT3-ITD Caliper Assays
(§2) Assays were performed in a 20 μl-volume in 384-well polypropylene microplates (Perkin Elmer Proxiplate, cat. No. 6059480) at ambient temperature. Optimized 1× assay buffer was 50 mM Hepes pH 7.5, 2 mM DTT, 0.01% Tween, 0.01% BSA, 10 mM MgCl2. For compound screening FLT3 (final concentration, f.c.=0.9 nM) or FLT3-ITD (f.c.=7 nM) was added using a Multidrop Combi (ThermoFisher Scientific, Waltham, MA) and preincubated for 10 min. Reactions were started by adding fluorescein-peptide (sequence 5-FAM-EAIYAAPFAKKK-CONH2) (f.c.=300 μM) and ATP (FLT3 f.c.=97 μM FLT3-ITD f.c.=146 μM) substrates. Reactions proceeded for 60 minutes. The reactions were stopped with LabChip ProfilerPro Separation Buffer containing EDTA (f.c.=20 mM). The plates were read on a Caliper microfluidics reader (PerkinElmer, Waltham, MA).

[4] = biological target: T2, FLT3-ITD (Homo sapiens, UniProt P36888); assay: FLT3-ITD Caliper assay; type: biochemical; settings: Table 4; read-out: FLT3-ITD Calipher assay IC50
T2 sequence (P36888 1-993): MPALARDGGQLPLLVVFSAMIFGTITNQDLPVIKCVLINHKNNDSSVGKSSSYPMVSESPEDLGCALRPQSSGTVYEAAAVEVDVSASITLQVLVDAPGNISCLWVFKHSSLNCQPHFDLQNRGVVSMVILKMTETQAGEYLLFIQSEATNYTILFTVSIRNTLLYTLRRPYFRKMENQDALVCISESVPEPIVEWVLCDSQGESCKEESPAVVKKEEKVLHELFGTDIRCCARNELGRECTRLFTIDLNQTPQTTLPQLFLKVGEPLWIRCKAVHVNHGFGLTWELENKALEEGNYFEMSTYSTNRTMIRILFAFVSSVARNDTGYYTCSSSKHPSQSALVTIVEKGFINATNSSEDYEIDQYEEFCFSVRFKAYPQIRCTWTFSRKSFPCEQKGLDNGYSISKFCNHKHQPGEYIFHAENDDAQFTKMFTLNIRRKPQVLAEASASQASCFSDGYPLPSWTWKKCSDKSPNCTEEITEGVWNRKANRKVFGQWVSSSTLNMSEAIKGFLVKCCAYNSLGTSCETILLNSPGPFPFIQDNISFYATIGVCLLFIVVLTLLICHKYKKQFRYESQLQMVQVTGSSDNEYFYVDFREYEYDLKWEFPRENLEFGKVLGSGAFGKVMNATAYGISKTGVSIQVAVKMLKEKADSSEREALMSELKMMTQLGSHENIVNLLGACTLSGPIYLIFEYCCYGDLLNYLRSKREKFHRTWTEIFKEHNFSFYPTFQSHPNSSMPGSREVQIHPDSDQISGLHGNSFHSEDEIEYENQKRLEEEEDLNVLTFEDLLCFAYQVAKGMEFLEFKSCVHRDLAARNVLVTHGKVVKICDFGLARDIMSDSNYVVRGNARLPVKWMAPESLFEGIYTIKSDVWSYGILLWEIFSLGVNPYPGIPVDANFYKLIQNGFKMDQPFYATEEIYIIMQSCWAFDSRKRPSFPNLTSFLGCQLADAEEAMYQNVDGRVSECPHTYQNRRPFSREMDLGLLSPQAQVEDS
Experimental: as §1, §2

Chain of METTL3/METTL14 (Q86U44 whole entry, species assumed): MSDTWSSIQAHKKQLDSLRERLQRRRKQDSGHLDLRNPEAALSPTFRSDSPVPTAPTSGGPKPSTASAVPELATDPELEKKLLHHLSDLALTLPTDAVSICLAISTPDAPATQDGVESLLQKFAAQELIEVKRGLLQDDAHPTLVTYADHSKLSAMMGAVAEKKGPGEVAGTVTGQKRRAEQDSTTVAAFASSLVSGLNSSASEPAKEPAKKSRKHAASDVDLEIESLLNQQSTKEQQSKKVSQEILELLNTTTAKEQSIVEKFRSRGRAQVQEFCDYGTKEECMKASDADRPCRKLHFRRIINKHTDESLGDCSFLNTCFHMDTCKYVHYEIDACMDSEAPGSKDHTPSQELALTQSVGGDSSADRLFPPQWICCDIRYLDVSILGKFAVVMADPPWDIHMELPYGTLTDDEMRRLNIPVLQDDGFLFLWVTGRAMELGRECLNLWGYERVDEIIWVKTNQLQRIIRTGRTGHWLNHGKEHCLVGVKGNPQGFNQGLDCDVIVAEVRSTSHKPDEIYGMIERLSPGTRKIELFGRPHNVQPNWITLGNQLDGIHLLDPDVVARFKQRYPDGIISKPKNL
Chain of METTL3/METTL14 (Q9HCE5 whole entry partner, species assumed): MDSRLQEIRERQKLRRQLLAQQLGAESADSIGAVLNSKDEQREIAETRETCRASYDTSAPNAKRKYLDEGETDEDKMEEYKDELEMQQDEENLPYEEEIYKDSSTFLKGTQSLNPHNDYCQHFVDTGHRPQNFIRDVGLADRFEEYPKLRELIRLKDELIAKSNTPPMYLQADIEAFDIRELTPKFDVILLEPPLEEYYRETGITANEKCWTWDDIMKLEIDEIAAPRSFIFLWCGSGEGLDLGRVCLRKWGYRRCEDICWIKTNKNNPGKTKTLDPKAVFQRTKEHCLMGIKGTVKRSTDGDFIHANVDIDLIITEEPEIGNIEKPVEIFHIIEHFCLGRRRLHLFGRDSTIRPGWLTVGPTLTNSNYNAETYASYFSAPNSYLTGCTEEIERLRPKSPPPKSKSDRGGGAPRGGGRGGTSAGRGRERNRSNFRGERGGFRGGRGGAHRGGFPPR

SMILES: CCNc1cc(CNC(=O)[C@H]2O[C@@H](n3cc(-c4ccn(C)n4)c4c(N)ncnc43)[C@H](O)[C@@H]2O)ccn1 [Compound I-226]
- IC50 [1]: 100 to 1000 nM
- IC50 [2]: 100 to 1000 nM
- IC50 [3]: ≥ 1000 nM
- IC50 [4]: ≥ 1000 nM

SMILES: CCN(CC)C(=O)[C@H]1O[C@@H](n2cc(-c3ccn(C)n3)c3c(N)ncnc32)[C@H](O)[C@@H]1O [Compound I-150]
- IC50 [1]: ≥ 1000 nM
- IC50 [2]: 100 to 1000 nM
- IC50 [3]: ≥ 1000 nM
- IC50 [4]: ≥ 1000 nM

SMILES: Cn1ccc(-c2cn([C@@H]3O[C@H](C(=O)NC4CCOCC4)[C@@H](O)[C@H]3O)c3ncnc(N)c23)n1 [Compound I-182]
- IC50 [1]: ≥ 1000 nM
- IC50 [2]: 100 to 1000 nM
- IC50 [3]: ≥ 1000 nM
- IC50 [4]: ≥ 1000 nM

SMILES: N#Cc1cn([C@@H]2O[C@H](C(=O)Nc3ccc4ccc(N5CCC5)nc4c3)[C@@H](O)[C@H]2O)c2ncnc(N)c12 [Compound I-52, (2S,3S,4R,5R)-5-{4-amino-5-cyano-7H-pyrrolo[2,3-d]pyrimidin-7-yl}-N-[2-(azetidin-1-yl)quinolin-7-yl]-3,4-dihydroxyoxolane-2-carboxamide]
- IC50 [1]: 10 to 100 nM
- IC50 [2]: 100 to 1000 nM
- IC50 [3]: 100 to 1000 nM
- IC50 [4]: 100 to 1000 nM

SMILES: Cn1ccc(-c2cn([C@@H]3O[C@H](C(=O)NCC#N)[C@@H](O)[C@H]3O)c3ncnc(N)c23)n1 [Compound I-229]
- IC50 [1]: ≥ 1000 nM
- IC50 [2]: ≥ 1000 nM
- IC50 [3]: ≥ 1000 nM
- IC50 [4]: ≥ 1000 nM

SMILES: CN1CCC(NC(=O)[C@H]2O[C@@H](n3cc(-c4ccn(C)n4)c4c(N)ncnc43)[C@@H](F)[C@@H]2O)CC1 [Compound I-60]
- IC50 [1]: 100 to 1000 nM
- IC50 [2]: ≥ 1000 nM
- IC50 [3]: ≥ 1000 nM
- IC50 [4]: ≥ 1000 nM

SMILES: COc1cccc(CNC(=O)[C@H]2O[C@@H](n3cc(-c4ccn(C)n4)c4c(N)ncnc43)[C@H](O)[C@@H]2O)c1 [Compound I-40]
- IC50 [1]: 100 to 1000 nM
- IC50 [2]: 100 to 1000 nM
- IC50 [3]: ≥ 1000 nM
- IC50 [4]: ≥ 1000 nM

SMILES: Cn1ccc(-c2cn([C@@H]3O[C@H](C(=O)Nc4cc(NC5CCC5)ccn4)[C@@H](O)[C@H]3O)c3ncnc(N)c23)n1 [Compound I-162]
- IC50 [1]: 100 to 1000 nM
- IC50 [2]: 10 to 100 nM
- IC50 [3]: ≥ 1000 nM
- IC50 [4]: ≥ 1000 nM

SMILES: Cn1ccc(-c2cn([C@@H]3O[C@H](C(=O)NC4CCc5nc(N)sc5C4)[C@@H](O)[C@H]3O)c3ncnc(N)c23)n1 (stereo in doubt) [Compound I-161]
- IC50 [1]: 100 to 1000 nM
- IC50 [2]: 100 to 1000 nM
- IC50 [3]: ≥ 1000 nM
- IC50 [4]: ≥ 1000 nM

SMILES: Cn1ccc(-c2cn([C@@H]3O[C@H](C(=O)NC4CCNC(=O)C4)[C@@H](O)[C@H]3O)c3ncnc(N)c23)n1 (stereo partly drawn) [Compound I-175]
- IC50 [1]: ≥ 1000 nM
- IC50 [2]: ≥ 1000 nM
- IC50 [3]: ≥ 1000 nM
- IC50 [4]: ≥ 1000 nM

SMILES: Cn1ccc(-c2cn([C@@H]3O[C@H](C(=O)NCCc4cccnc4)[C@@H](O)[C@H]3O)c3ncnc(N)c23)n1 [Compound I-160]
- IC50 [1]: ≥ 1000 nM
- IC50 [2]: 10 to 100 nM
- IC50 [3]: ≥ 1000 nM
- IC50 [4]: ≥ 1000 nM

SMILES: Cn1ccc(-c2cn([C@@H]3O[C@H](C(=O)Nc4ccc5ccc(N6CCC6)nc5c4)[C@@H](O)[C@@H]3F)c3ncnc(N)c23)n1 [Compound I-33, (2S,3R,4S,5R)-5-[4-amino-5-(1-methyl-1H-pyrazol-3-yl)-7H-pyrrolo[2,3-d]pyrimidin-7-yl]-N-[2-(azetidin-1-yl)quinolin-7-yl]-4-fluoro-3-hydroxyoxolane-2-carboxamide]
- IC50 [1]: < 10 nM
- IC50 [2]: ≥ 1000 nM
- IC50 [3]: ≥ 1000 nM
- IC50 [4]: ≥ 1000 nM

SMILES: Cc1ccnc(NC(=O)[C@H]2O[C@@H](n3cc(-c4ccn(C)n4)c4c(N)ncnc43)[C@H](O)[C@@H]2O)c1 [Compound I-172]
- IC50 [1]: ≥ 1000 nM
- IC50 [2]: ≥ 1000 nM
- IC50 [3]: ≥ 1000 nM
- IC50 [4]: ≥ 1000 nM

SMILES: CC(=O)N1CCC(CNC(=O)[C@H]2O[C@@H](n3cc(-c4ccn(C)n4)c4c(N)ncnc43)[C@H](O)[C@@H]2O)CC1 [Compound I-227]
- IC50 [1]: ≥ 1000 nM
- IC50 [2]: ≥ 1000 nM
- IC50 [3]: ≥ 1000 nM
- IC50 [4]: ≥ 1000 nM

SMILES: Cn1ccc(-c2cn([C@@H]3O[C@H](C(=O)NCc4cc(F)cc(F)c4)[C@@H](O)[C@H]3O)c3ncnc(N)c23)n1 [Compound I-191]
- IC50 [1]: 100 to 1000 nM
- IC50 [2]: 100 to 1000 nM
- IC50 [3]: ≥ 1000 nM
- IC50 [4]: ≥ 1000 nM

SMILES: Cn1ccc(-c2cn([C@@H]3O[C@H](C(=O)NCCc4ccccc4)[C@@H](O)[C@H]3O)c3ncnc(N)c23)n1 [Compound I-192]
- IC50 [1]: 100 to 1000 nM
- IC50 [2]: 100 to 1000 nM
- IC50 [3]: ≥ 1000 nM
- IC50 [4]: ≥ 1000 nM

SMILES: COc1cccc(NC(=O)[C@H]2O[C@@H](n3cc(-c4ccn(C)n4)c4c(N)ncnc43)[C@H](O)[C@@H]2O)c1 [Compound I-157]
- IC50 [1]: ≥ 1000 nM
- IC50 [2]: 100 to 1000 nM
- IC50 [3]: ≥ 1000 nM
- IC50 [4]: ≥ 1000 nM

SMILES: Cn1ccc(-c2cn([C@@H]3O[C@H](C(=O)Nc4cc(NCC5CC5)ccn4)[C@@H](O)[C@H]3O)c3ncnc(N)c23)n1 [Compound I-163]
- IC50 [1]: 100 to 1000 nM
- IC50 [2]: 10 to 100 nM
- IC50 [3]: ≥ 1000 nM
- IC50 [4]: ≥ 1000 nM

SMILES: CNc1cccc(CCNC(=O)[C@H]2O[C@@H](n3cc(-c4ccn(C)n4)c4c(N)ncnc43)[C@H](O)[C@@H]2O)n1 [Compound I-193]
- IC50 [1]: 100 to 1000 nM
- IC50 [2]: ≥ 1000 nM
- IC50 [3]: ≥ 1000 nM
- IC50 [4]: ≥ 1000 nM

SMILES: Cn1ccc(-c2cn([C@@H]3O[C@H](C(=O)Nc4cc[nH]n4)[C@@H](O)[C@H]3O)c3ncnc(N)c23)n1 [Compound I-170]
- IC50 [1]: ≥ 1000 nM
- IC50 [2]: ≥ 1000 nM
- IC50 [3]: 100 to 1000 nM
- IC50 [4]: 100 to 1000 nM

SMILES: Cn1ccc(-c2cn([C@@H]3O[C@H](C(=O)Nc4cc(F)cc(F)c4)[C@@H](O)[C@H]3O)c3ncnc(N)c23)n1 [Compound I-158]
- IC50 [1]: ≥ 1000 nM
- IC50 [2]: 100 to 1000 nM
- IC50 [3]: ≥ 1000 nM
- IC50 [4]: ≥ 1000 nM
